This passage reports solubility and IC50 results from patent US20140005163A1 (NOVARTIS AG, priority 2010, published 2014).

Values after ≈ are worked out from the molar mass of the structure shown. Where two headings read alike, the source gives them in different places.

One data set can be described thus: Solubility at pH 6.8. In kind it is physicochemical. Summed up:
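Solubility was measured at pH 6.8 following the cited Zhou et al. (2007) procedure.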

The next data set concerns the target T1, PI3K beta (Homo sapiens, UniProt P42338).
T1 construct: for the full-length p110-b subunit are generated and fused by overlapping PCR; p85(iSH2) fusion partner (see partner chain) (N); His tag (C); made in house; host or cells: baculovirus; Tn5 (Trichoplusia ni) or TiniPro insect cells
Kind of data set: PI3K beta kinase assay (Kinase-Glo luminescence). In kind it is biochemical. Summed up:
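Enzyme: BV949 p85(iSH2)-Gly linker-p110β FL-His, 25 nM. Substrate: PI 10 μg/mL. ATP: 1 μM, added to start. Buffer: Tris pH 7.5 10 mM, MgCl2 3 mM, NaCl 50 mM, CHAPS 0.05%, DTT 1 mM. RT, 60 min. Readout: Kinase-Glo. IC50 by 4-parameter fit.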

The subject of data set [1] is PKB Ser473 phosphorylation in Rat1-myr-HA-p110 alpha cells. Kind of data set: Reverse protein array assay, PKB Ser473 phosphorylation in Rat1-myr-p110 alpha cells. The format is cell-based. Particulars: 0.5 h, pAkt Ser473, 30 minutes compound incubation, read-out: p-PKB IC50. The method in brief: (§1)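 Measured: PKB Ser473 phosphorylation by reverse protein array in Rat1 cells expressing myr-HA-p110 alpha, beta or delta, after 30 min compound treatment at 37 °C with 0.2% DMSO vehicle.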

The test system of data set [2] is PKB Ser473 phosphorylation in Rat1-myr-HA-p110 beta cells. Briefly: Reverse protein array assay, PKB Ser473 phosphorylation in Rat1-myr-p110 beta cells. The format is cell-based. Particulars: 0.5 h, pAkt Ser473, 30 minutes incubation, read-out: p-PKB IC50. Summed up:
as §1

Data set [3] has as its system PKB Ser473 phosphorylation in Rat1-myr-HA-p110 delta cells. Kind of data set: Reverse protein array assay, PKB Ser473 phosphorylation in Rat1-myr-p110 delta cells. In kind it is cell-based. To be noted: read-out: p-PKB IC50. Summed up: as §1
Setting [4] is: pH 6.8, aqueous buffer, thermodynamic from solid, read-out: solubility.

T1 sequence (P42338 with tags, fused parts or gaps limits assumed): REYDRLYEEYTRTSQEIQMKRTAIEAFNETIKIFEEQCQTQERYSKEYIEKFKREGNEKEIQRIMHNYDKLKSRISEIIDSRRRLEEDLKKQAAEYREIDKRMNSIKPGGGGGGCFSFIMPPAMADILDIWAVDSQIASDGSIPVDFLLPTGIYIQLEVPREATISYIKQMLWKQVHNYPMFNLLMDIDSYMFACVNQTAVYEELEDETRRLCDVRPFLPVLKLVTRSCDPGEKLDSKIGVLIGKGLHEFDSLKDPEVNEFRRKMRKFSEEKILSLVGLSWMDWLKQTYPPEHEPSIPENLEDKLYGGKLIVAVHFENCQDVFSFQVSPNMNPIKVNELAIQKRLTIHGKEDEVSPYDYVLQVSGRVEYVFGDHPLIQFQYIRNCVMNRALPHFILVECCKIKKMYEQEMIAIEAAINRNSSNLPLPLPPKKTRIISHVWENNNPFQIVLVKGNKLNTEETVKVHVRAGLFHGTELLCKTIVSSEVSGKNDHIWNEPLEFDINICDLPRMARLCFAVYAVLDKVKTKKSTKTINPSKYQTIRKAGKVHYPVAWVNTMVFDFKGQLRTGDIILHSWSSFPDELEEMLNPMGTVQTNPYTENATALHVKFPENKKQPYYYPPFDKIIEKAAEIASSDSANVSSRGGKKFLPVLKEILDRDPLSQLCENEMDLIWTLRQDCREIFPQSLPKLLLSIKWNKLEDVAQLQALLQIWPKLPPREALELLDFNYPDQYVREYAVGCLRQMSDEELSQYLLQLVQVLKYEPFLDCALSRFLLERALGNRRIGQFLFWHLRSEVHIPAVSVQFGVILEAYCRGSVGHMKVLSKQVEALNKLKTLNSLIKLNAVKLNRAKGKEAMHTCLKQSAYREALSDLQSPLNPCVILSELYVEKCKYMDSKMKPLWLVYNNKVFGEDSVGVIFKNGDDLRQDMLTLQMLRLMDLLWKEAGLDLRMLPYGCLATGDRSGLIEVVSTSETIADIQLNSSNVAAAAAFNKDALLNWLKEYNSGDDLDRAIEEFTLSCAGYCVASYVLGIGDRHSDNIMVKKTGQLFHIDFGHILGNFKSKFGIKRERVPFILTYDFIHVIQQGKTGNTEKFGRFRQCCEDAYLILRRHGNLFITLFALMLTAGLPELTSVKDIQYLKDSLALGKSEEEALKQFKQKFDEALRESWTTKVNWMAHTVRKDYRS

Consider `Cc1nn(C)cc1-n1c(=O)n(C)c2cnc3ccc(-c4cnc5c(c4)nnn5C)cc3c21` [Example 72, 1-(1,3-Dimethyl-1H-pyrazol-4-yl)-3-methyl-8-(3-methyl-3H-[1,2,3]triazolo[4,5-b]pyridin-6-yl)-1,3-dihydro-imidazo[4,5-c]quinolin-2-one], for which the solubility in the data set “Solubility at pH 6.8” (setting [4]) was 37 µg/mL (≈ 87 µM). The IC50 on PI3K beta amounted to 112 nM; in data set [1], 166 nM; in data set [2] it was 299 nM; in data set [3], 225 nM.

For `Cc1nn(C)cc1-n1c(=O)n(C)c2cnc3ccc(-c4cnc5c(c4)ncn5C)cc3c21` [Example 74, 1-(1,3-Dimethyl-1H-pyrazol-4-yl)-3-methyl-8-(3-methyl-3H-imidazo[4,5-b]pyridin-6-yl)-1,3-dihydro-imidazo[4,5-c]quinolin-2-one], the solubility in the data set “Solubility at pH 6.8” (setting [4]) amounted to 8 µg/mL (≈ 18.8 µM). Also, the IC50 on PI3K beta came to 370 nM; in data set [1] it was 20 nM; in data set [2] it was 56 nM; in data set [3] it was 280 nM.

`Cc1ncc(-c2ccc3ncc4c(c3c2)n(-c2cn(C)nc2C)c(=O)n4C)cc1OC(C)C` [Example 84.1, 1-(1,3-Dimethyl-1H-pyrazol-4-yl)-8-(5-isopropoxy-6-methyl-pyridin-3-yl)-3-methyl-1,3-dihydro-imidazo[4,5-c]quinolin-2-one]: the solubility in “Solubility at pH 6.8” (setting [4]) is 219 µg/mL (≈ 495 µM). Moreover, the IC50 is 8 nM on PI3K beta, below 5 nM in data set [1], 8 nM in data set [2] and 18 nM in data set [3].

As for `CCNc1cc(-c2ccc3ncc4c(c3c2)n(-c2c(C)nn(CC(=O)N(C)C)c2C)c(=O)n4C)cnc1C` [Example 87.5, 2-{4-[8-(5-Ethylamino-6-methyl-pyridin-3-yl)-3-methyl-2-oxo-2,3-dihydro-imidazo[4,5-c]quinolin-1-yl]-3,5-dimethyl-pyrazol-1-yl}-N,N-dimethyl-acetamide], the solubility in “Solubility at pH 6.8” (setting [4]) is above 513 µg/mL. The IC50 stood at 335 nM at PI3K beta, 237 nM in data set [1], 407 nM in data set [2] and 634 nM in data set [3].

For the compound `CCNc1cc(-c2ccc3ncc4c(c3c2)n(-c2c(C)nn(CCOC)c2C)c(=O)n4C)cnc1OC` [Example 90.2, 8-(5-Ethylamino-6-methoxy-pyridin-3-yl)-1-[1-(2-methoxy-ethyl)-3,5-dimethyl-1H-pyrazol-4-yl]-3-methyl-1,3-dihydro-imidazo[4,5-c]quinolin-2-one], in the data set “Solubility at pH 6.8” (setting [4]), the solubility is above 502 µg/mL. Besides, the IC50 at PI3K beta came to 115 nM; in data set [1], 17 nM; in data set [2] it was 10 nM; in data set [3], 46 nM.

In “Solubility at pH 6.8” (pH 6.8), `Cc1nn(C)cc1-n1c(=O)n(C)c2cnc3ccc(-c4cnc5cc[nH]c5c4)cc3c21` [Example 99, 1-(1,3-Dimethyl-1H-pyrazol-4-yl)-3-methyl-8-(1H-pyrrolo[3,2-b]pyridin-6-yl)-1,3-dihydro-imidazo[4,5-c]quinolin-2-one] came in with a solubility of 2 µg/mL (≈ 4.88 µM). Further, the IC50 was 33 nM at PI3K beta, 13 nM in data set [1], 16 nM in data set [2] and 19 nM in data set [3].

Take `Cc1nn(C)cc1-n1c(=O)n(C)c2cnc3ccc(-c4ccc(OCCO)nc4)cc3c21` [Example 107, 1-(1,3-Dimethyl-1H-pyrazol-4-yl)-8-[6-(2-hydroxy-ethoxy)-pyridin-3-yl]-3-methyl-1,3-dihydro-imidazo[4,5-c]quinolin-2-one]: the solubility in “Solubility at pH 6.8” (setting [4]) came out at 49 µg/mL (≈ 114 µM). Also, the IC50 at PI3K beta came out at 95 nM; in data set [1], 85 nM; in data set [2], 101 nM; in data set [3] it was 193 nM.

In turn, `CCOc1ccc(-c2ccc3ncc4[nH]c(=O)n(-c5cn(C)nc5C)c4c3c2)cn1` [Example 110, 1-(1,3-Dimethyl-1H-pyrazol-4-yl)-8-(6-ethoxy-pyridin-3-yl)-1,3-dihydro-imidazo[4,5-c]quinolin-2-one] had a solubility in “Solubility at pH 6.8” (pH 6.8) of 2 µg/mL (≈ 4.99 µM). Also, the IC50 at PI3K beta is 137 nM; in data set [1], 67 nM; in data set [2] it was 113 nM; in data set [3], 196 nM.

Turning to `CNc1ccc(-c2ccc3ncc4c(c3c2)n(-c2cn(C)nc2C)c(=O)n4C)cn1` [Example 118.2, 1-(1,3-Dimethyl-1H-pyrazol-4-yl)-3-methyl-8-(6-methylamino-pyridin-3-yl)-1,3-dihydro-imidazo[4,5-c]quinolin-2-one], in the data set “Solubility at pH 6.8” (setting [4]), the solubility amounted to 30 µg/mL (≈ 75.1 µM). For the same compound, the IC50 on PI3K beta is 82 nM; in data set [1] it was below 5 nM; in data set [2], below 5 nM; in data set [3], 10 nM.

Consider `CCn1cc(-n2c(=O)n(C)c3cnc4ccc(-c5ccc(NC)nc5)cc4c32)c(C)n1` [Example 118.4, 1-(1-Ethyl-3-methyl-1H-pyrazol-4-yl)-3-methyl-8-(6-methylamino-pyridin-3-yl)-1,3-dihydro-imidazo[4,5-c]quinolin-2-one], for which, in the data set “Solubility at pH 6.8” (setting [4]), the solubility was 70 µg/mL (≈ 169 µM). For the same compound, the half-maximal inhibitory concentration (IC50) is 130 nM on PI3K beta, below 5 nM in data set [1], below 5 nM in data set [2] and 21 nM in data set [3].

Regarding `Cc1nn(C)cc1-n1c(=O)n(C)c2cnc3ccc(-c4cncc(N(C)S(C)(=O)=O)c4)cc3c21` [Example 121, N-{5-[1-(1,3-Dimethyl-1H-pyrazol-4-yl)-3-methyl-2-oxo-2,3-dihydro-1H-imidazo[4,5-c]quinolin-8-yl]-pyridin-3-yl}-N-methyl-methanesulfonamide], in “Solubility at pH 6.8” (setting [4]), the solubility was determined as 47 µg/mL (≈ 98.4 µM). The half-inhibitory concentration (IC50) on PI3K beta amounted to 93 nM; in data set [1], 254 nM; in data set [2], 444 nM; in data set [3], 341 nM.

`COc1ncc(-c2ccc3ncc4c(c3c2)n(-c2cn(C)nc2C)c(=O)n4C)cc1C(N)=O` [Example 125.2, 5-[1-(1,3-Dimethyl-1H-pyrazol-4-yl)-3-methyl-2-oxo-2,3-dihydro-1H-imidazo[4,5-c]quinolin-8-yl]-2-methoxy-nicotinamide]: in “Solubility at pH 6.8” (pH 6.8), the solubility is 2 µg/mL (≈ 4.51 µM). Besides, the IC50 at PI3K beta came out at 93 nM; in data set [1] it was 82 nM; in data set [2] it was 187 nM; in data set [3] it was 61 nM.

`COc1ncc(-c2ccc3ncc4c(c3c2)n(-c2cn(C)nc2C)c(=O)n4C)cc1C#N` [Example 132, 5-[1-(1,3-Dimethyl-1H-pyrazol-4-yl)-3-methyl-2-oxo-2,3-dihydro-1H-imidazo[4,5-c]quinolin-8-yl]-2-methoxy-nicotinonitrile]: the solubility in “Solubility at pH 6.8” (setting [4]) was 17 µg/mL (≈ 40 µM). Further, the half-inhibitory concentration (IC50) at PI3K beta was 161 nM; in data set [1], 51 nM; in data set [2], 99 nM; in data set [3], 145 nM.

`CNc1ncc(-c2ccc3ncc4c(c3c2)n(-c2c(C)nn(C)c2C)c(=O)n4C)cc1F` [Example 141.1, 8-(5-Fluoro-6-methylamino-pyridin-3-yl)-3-methyl-1-(1,3,5-trimethyl-1H-pyrazol-4-yl)-1,3-dihydro-imidazo[4,5-c]quinolin-2-one]: the solubility in “Solubility at pH 6.8” (setting [4]) is above 431 µg/mL. Further, the IC50 stood at 469 nM at PI3K beta, 150 nM in data set [1], 162 nM in data set [2] and 403 nM in data set [3].

On to `CNc1ncc(-c2ccc3ncc4c(c3c2)n(-c2cn(C)nc2C)c(=O)n4C)cc1F` [Example 141.2, 1-(1,3-Dimethyl-1H-pyrazol-4-yl)-8-(5-fluoro-6-methylamino-pyridin-3-yl)-3-methyl-1,3-dihydro-imidazo[4,5-c]quinolin-2-one], for which, in “Solubility at pH 6.8” (pH 6.8), the solubility was 2 µg/mL (≈ 4.79 µM). In addition, the IC50 was 142 nM on PI3K beta, below 5 nM in data set [1], below 5 nM in data set [2] and 21 nM in data set [3].

Broadly, the solubility is how much of the substance goes into solution per volume. Usually IC50 stands for the concentration needed to halve the response being measured.
